We go through two compounds from publication PMC12703741, “Light-Activated Metal-Dependent Protein Degradation: A Heterobifunctional Ruthenium(II) Photosensitizer Targeting New Delhi Metallo-β-lactamase 1” (Journal of the American Chemical Society, 2025).

For data set [1] the following is noted: archetypal comparison complex; cited from earlier work.
On the set-up of data set [2]: method as in earlier work. As to conditions: reference for 1O2 sensitization; ref 4 (SI), Tanielian et al., 1996; cited from earlier work.
Data set [3] deals with T1, NDM-1 (Klebsiella pneumoniae, UniProt C7C422). As to conditions: read-out: Km(Nitrocefin); previously reported; ref 5 (SI); cited from earlier work.
In data set [4] the target is T1, NDM-1. Particulars: read-out: Km(Nitrocefin); NDM-1 2 nM, 25 °C. An excerpt: (4 pictures or pasted objects on this page, not shown here)

In general, Km refers to the concentration of substrate that gives half-maximal velocity.

Each structure is given as a SMILES string. Like-named read-outs stand apart in the source and are kept apart here.

T1 sequence (C7C422 31-270 limits assumed): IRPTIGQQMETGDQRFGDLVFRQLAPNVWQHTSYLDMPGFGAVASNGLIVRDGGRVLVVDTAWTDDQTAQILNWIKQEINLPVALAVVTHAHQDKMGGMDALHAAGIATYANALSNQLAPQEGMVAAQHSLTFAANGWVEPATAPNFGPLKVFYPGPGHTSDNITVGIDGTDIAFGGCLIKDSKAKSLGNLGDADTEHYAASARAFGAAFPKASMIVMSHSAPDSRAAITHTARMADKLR

`[Cl][Ru][Cl].c1ccc(-c2ccccn2)nc1.c1ccc(-c2ccccn2)nc1.c1ccc(-c2ccccn2)nc1` [[Ru(bpy)3]Cl2, tris(2,2’-bipyridyl)ruthenium(II) dichloride]: in data set [1], the “Luminescence lifetime of excited state” value is 510 ns. For the same compound, the “1O2 quantum yield (ΦΔ)” value in data set [2] is reported as 0.87.
`O=C(Cc1cccs1)N[C@@H]1C(=O)N2C(C(=O)O)=C(/C=C/c3ccc([N+](=O)[O-])cc3[N+](=O)[O-])CS[C@H]12` [nitrocefin]: the figures for the Km at NDM-1 [3] and on NDM-1 [4] were 3.2 µM and 3.1 ± 0.5 µM, respectively.
